Laboratory results reported in patent US10582709B2, “Butyrolactones as herbicides” (FMC Corporation, priority 2015, dated 2020).

Key:
Type in all cases: in vivo
[1] = test system: barnyardgrass (Echinochloa crus-galli); test: Test B flooded paddy test, barnyardgrass; conditions: 500 g ai/ha; applied to paddy water at 2-leaf stage; 13 to 15 d; scale 0 no effect to 100 complete control
Summary of the method: (§1)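 Ratings use a 0-100 visual scale, where 100 is complete control, and compare treated plants with controls after 13 to 15 d of greenhouse growth. Compound went straight into paddy water kept 3 cm over the soil surface, applied to seedlings at the 2-leaf stage.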

[2] = test system: ducksalad (Heteranthera limosa); test: Test B flooded paddy test, ducksalad; conditions: 500 g ai/ha; applied to paddy water at 2-leaf stage; 13 to 15 d; scale 0 no effect to 100 complete control
Summary of the method: as §1

rice (Oryza sativa) = test: Test B flooded paddy test, rice; conditions: 500 g ai/ha; applied to paddy water at 2-leaf stage; 13 to 15 d; scale 0 no effect to 100 complete control
Summary of the method: as §1

[3] = test system: sedge, umbrella (small-flower umbrella sedge, Cyperus difformis); test: Test B flooded paddy test, umbrella sedge; conditions: 500 g ai/ha; applied to paddy water at 2-leaf stage; 13 to 15 d; scale 0 no effect to 100 complete control
Summary of the method: as §1

[4] = test system: barnyardgrass (Echinochloa crus-galli); test: Test A preemergence, barnyardgrass; conditions: visual rating after approx. 10 d, 0 to 100 scale, 0 no effect, 100 complete control
Summary of the method: (§2)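 Herbicidal effect scored by eye on 0–100 (complete control = 100) about 10 d after spraying in a greenhouse. Formulation was a non-phytotoxic solvent blend with surfactant, applied to soil at seeding or to seedlings at the one- to two-leaf stage.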

kochia (Kochia scoparia) [5] = test: Test A preemergence, kochia; conditions: visual rating after approx. 10 d, 0 to 100 scale, 0 no effect, 100 complete control
Summary of the method: as §2

[6] = test system: ragweed (common ragweed, Ambrosia elatior); test: Test A preemergence, ragweed; conditions: visual rating after approx. 10 d, 0 to 100 scale, 0 no effect, 100 complete control
Summary of the method: as §2

[7] = test system: ryegrass, Italian (Italian ryegrass, Lolium multiflorum); test: Test A preemergence, Italian ryegrass; conditions: visual rating after approx. 10 d, 0 to 100 scale, 0 no effect, 100 complete control
Summary of the method: as §2

[8] = test system: foxtail, giant (giant foxtail, Setaria faberii); test: Test A preemergence, giant foxtail; conditions: visual rating after approx. 10 d, 0 to 100 scale, 0 no effect, 100 complete control
Summary of the method: as §2

[9] = test system: pigweed (Amaranthus retroflexus); test: Test A preemergence, pigweed; conditions: visual rating after approx. 10 d, 0 to 100 scale, 0 no effect, 100 complete control
Summary of the method: as §2

[10] = test system: barnyardgrass (Echinochloa crus-galli); test: Test A postemergence, barnyardgrass; conditions: visual rating after approx. 10 d, 0 to 100 scale, 0 no effect, 100 complete control
Summary of the method: as §2

kochia (Kochia scoparia) [11] = test: Test A postemergence, kochia; conditions: visual rating after approx. 10 d, 0 to 100 scale, 0 no effect, 100 complete control
Summary of the method: as §2

[12] = test system: ragweed (common ragweed, Ambrosia elatior); test: Test A postemergence, ragweed; conditions: visual rating after approx. 10 d, 0 to 100 scale, 0 no effect, 100 complete control
Summary of the method: as §2

[13] = test system: ryegrass, Italian (Italian ryegrass, Lolium multiflorum); test: Test A postemergence, Italian ryegrass; conditions: visual rating after approx. 10 d, 0 to 100 scale, 0 no effect, 100 complete control
Summary of the method: as §2

[14] = test system: foxtail, giant (giant foxtail, Setaria faberii); test: Test A postemergence, giant foxtail; conditions: visual rating after approx. 10 d, 0 to 100 scale, 0 no effect, 100 complete control
Summary of the method: as §2

[15] = test system: wheat (Triticum aestivum); test: Test A postemergence, wheat; conditions: visual rating after approx. 10 d, 0 to 100 scale, 0 no effect, 100 complete control
Summary of the method: as §2

corn (Zea mays) [16] = test: Test A postemergence, corn; conditions: visual rating after approx. 10 d, 0 to 100 scale, 0 no effect, 100 complete control
Summary of the method: as §2

[17] = test system: pigweed (Amaranthus retroflexus); test: Test A postemergence, pigweed; conditions: visual rating after approx. 10 d, 0 to 100 scale, 0 no effect, 100 complete control
Summary of the method: as §2

[18] = test system: blackgrass (Alopecurus myosuroides); test: Test A postemergence, blackgrass; conditions: visual rating after approx. 10 d, 0 to 100 scale, 0 no effect, 100 complete control
Summary of the method: as §2

[19] = test system: galium (catchweed bedstraw, Galium aparine); test: Test A postemergence, galium; conditions: visual rating after approx. 10 d, 0 to 100 scale, 0 no effect, 100 complete control
Summary of the method: as §2

[20] = test system: crabgrass (large crabgrass, Digitaria sanguinalis); test: Test A preemergence, crabgrass; conditions: 1000 g ai/ha, visual rating after approx. 10 d, 0 to 100 scale, 0 no effect, 100 complete control
Source text: (§3) Seeds of plant species selected from barnyardgrass (Echinochloa crus-galli), crabgrass (large crabgrass, Digitaria sanguinalis), kochia (Kochia scoparia), ragweed (common ragweed, Ambrosia elatior), morningglory (Ipomoea spp.), velvetleaf (Abutilon theophrasti), ryegrass, Italian (Italian ryegrass, Lolium multiflorum), foxtail, giant (giant foxtail, Setaria faberii), wheat (Triticum aestivum), corn (Zea mays), and pigweed (Amaranthus retroflexus), were planted into a blend of loam soil and sand and treated preemergence with a directed soil spray using test chemicals formulated in a non-phytotoxic solvent mixture which included a surfactant. At the same time, plants selected from these crop and weed species and also blackgrass (Alopecurus myosuroides), and galium (catchweed bedstraw, Galium aparine), were planted in pots containing the same blend of loam soil and sand and treated with postemergence applications of test chemicals formulated in the same manner. Plants ranged in height from 2 to 10 cm and were in the one- to two-leaf stage for the postemergence treatment. Treated plants and untreated controls were maintained in a greenhouse for approximately 10 d, after which time all treated plants were compared to untreated controls and visually evaluated for injury. Plant response ratings, summarized in Table A, are based on a 0 to 100 scale where 0 is no effect and 100 is complete control. A dash (-) response means no test result.

[21] = test system: morningglory (Ipomoea spp.); test: Test A preemergence, morningglory; conditions: 1000 g ai/ha, visual rating after approx. 10 d, 0 to 100 scale, 0 no effect, 100 complete control
Source text: as §3

[22] = test system: velvetleaf (Abutilon theophrasti); test: Test A preemergence, velvetleaf; conditions: 1000 g ai/ha, visual rating after approx. 10 d, 0 to 100 scale, 0 no effect, 100 complete control
Source text: as §3

[23] = test system: wheat (Triticum aestivum); test: Test A preemergence, wheat; conditions: 1000 g ai/ha, visual rating after approx. 10 d, 0 to 100 scale, 0 no effect, 100 complete control
Source text: as §3

corn (Zea mays) [24] = test: Test A preemergence, corn; conditions: 1000 g ai/ha, visual rating after approx. 10 d, 0 to 100 scale, 0 no effect, 100 complete control
Source text: as §3

[25] = test system: crabgrass (large crabgrass, Digitaria sanguinalis); test: Test A postemergence, crabgrass; conditions: 1000 g ai/ha, visual rating after approx. 10 d, 0 to 100 scale, 0 no effect, 100 complete control
Source text: as §3

[26] = test system: morningglory (Ipomoea spp.); test: Test A postemergence, morningglory; conditions: 1000 g ai/ha, visual rating after approx. 10 d, 0 to 100 scale, 0 no effect, 100 complete control
Source text: as §3

[27] = test system: velvetleaf (Abutilon theophrasti); test: Test A postemergence, velvetleaf; conditions: 1000 g ai/ha, visual rating after approx. 10 d, 0 to 100 scale, 0 no effect, 100 complete control
Source text: as §3

## O=C(Nc1ccccc1F)C1C(=O)OCC1c1cccc(C(F)(F)F)c1 (racemic) [Compound 11]
[1]
  Plant response rating, Flood, Barnyardgrass: 0
[2]
  Plant response rating, Flood, Ducksalad: 0
Rice (Oryza sativa)
  Plant response rating, Flood, Rice: 0
[3]
  Plant response rating, Flood, Sedge, Umbrella: 0
[4]; 125 g ai/ha
  Plant response rating, Barnyardgrass: 30
[4]; 500 g ai/ha
  Plant response rating, Barnyardgrass: 80
Kochia (Kochia scoparia) [5]; 125 g ai/ha
  Plant response rating, Kochia: 0
Kochia (Kochia scoparia) [5]; 500 g ai/ha
  Plant response rating, Kochia: 0
[6]; 125 g ai/ha
  Plant response rating, Ragweed: 0
[6]; 500 g ai/ha
  Plant response rating, Ragweed: 0
[7]; 125 g ai/ha
  Plant response rating, Ryegrass, Italian: 0
[7]; 500 g ai/ha
  Plant response rating, Ryegrass, Italian: 0
[8]; 125 g ai/ha
  Plant response rating, Foxtail, Giant: 70
[8]; 500 g ai/ha
  Plant response rating, Foxtail, Giant: 80
[9]; 125 g ai/ha
  Plant response rating, Pigweed: 0
[9]; 500 g ai/ha
  Plant response rating, Pigweed: 0
[10]; 125 g ai/ha
  Plant response rating, Barnyardgrass: 10
[10]; 500 g ai/ha
  Plant response rating, Barnyardgrass: 40
Kochia (Kochia scoparia) [11]; 125 g ai/ha
  Plant response rating, Kochia: 0
Kochia (Kochia scoparia) [11]; 500 g ai/ha
  Plant response rating, Kochia: 0
[12]; 125 g ai/ha
  Plant response rating, Ragweed: 0
[12]; 500 g ai/ha
  Plant response rating, Ragweed: 0
[13]; 125 g ai/ha
  Plant response rating, Ryegrass, Italian: 0
[13]; 500 g ai/ha
  Plant response rating, Ryegrass, Italian: 0
[14]; 125 g ai/ha
  Plant response rating, Foxtail, Giant: 20
[14]; 500 g ai/ha
  Plant response rating, Foxtail, Giant: 60
[15]; 125 g ai/ha
  Plant response rating, Wheat: 0
[15]; 500 g ai/ha
  Plant response rating, Wheat: 20
Corn (Zea mays) [16]; 125 g ai/ha
  Plant response rating, Corn: 0
Corn (Zea mays) [16]; 500 g ai/ha
  Plant response rating, Corn: 0
[17]; 125 g ai/ha
  Plant response rating, Pigweed: 0
[17]; 500 g ai/ha
  Plant response rating, Pigweed: 0
[18]; 125 g ai/ha
  Plant response rating, Blackgrass: 0
[18]; 500 g ai/ha
  Plant response rating, Blackgrass: 0
[19]; 125 g ai/ha
  Plant response rating, Galium: 0
[19]; 500 g ai/ha
  Plant response rating, Galium: 0

## Cc1ccccc1NC(=O)C1C(=O)OCC1c1ccc(F)cc1 (racemic) [Compound 5]
[4]; 1000 g ai/ha
  Plant response rating, Barnyardgrass: 60
[20]
  Plant response rating, Crabgrass: 80
[21]
  Plant response rating, Morningglory: 0
[22]
  Plant response rating, Velvetleaf: 0
[8]; 1000 g ai/ha
  Plant response rating, Foxtail, Giant: 70
[23]
  Plant response rating, Wheat: 0
Corn (Zea mays) [24]
  Plant response rating, Corn: 0
[9]; 1000 g ai/ha
  Plant response rating, Pigweed: 0
[10]; 1000 g ai/ha
  Plant response rating, Barnyardgrass: 50
[25]
  Plant response rating, Crabgrass: 80
[26]
  Plant response rating, Morningglory: 0
[27]
  Plant response rating, Velvetleaf: 0
[14]; 1000 g ai/ha
  Plant response rating, Foxtail, Giant: 60
[15]; 1000 g ai/ha
  Plant response rating, Wheat: 0
Corn (Zea mays) [16]; 1000 g ai/ha
  Plant response rating, Corn: 0
[17]; 1000 g ai/ha
  Plant response rating, Pigweed: 0
